How the values were obtained:
[1] = in vivo; cited from earlier work
HDAC4 = HDAC4 (Homo sapiens, UniProt P56524); assay: in vitro HDAC inhibition assay (fluorescence), HDAC4; assay type: biochemical; conditions: read-out: Percentage Inhibition
Description: (§1) Briefly, all of the compounds are dissolved in DMSO. A series of dilutions of the compounds were prepared with 10% DMSO in HDAC assay buffer and 5 μl of the dilution was added to a 50 μl reaction so that the final concentration of DMSO is 1% in all of reactions. The compounds were pre-incubated in duplicate at RT for 1 hour in a mixture containing HDAC assay buffer, 5 μg BSA, HDAC enzyme (see Table 7) and a the particular HDACi. After 1 hour, the enzymatic reactions were initiated by the addition of HDAC substrate (BPS Bioscience) to a final concentration of 10 μM or 2 μM. The enzymatic reaction proceeded for 30 minutes at 37° C.
(§2) HDAC activity assays were performed in duplicates at each concentration. The fluorescent intensity data were analyzed using the computer software, Graphpad Prism. In the absence of the compound, the fluorescent intensity (Ft) in each data set was defined as 100% activity. In the absence of HDAC, the fluorescent intensity (Fb) in each data set was defined as 0% activity. The percent activity in the presence of each compound was calculated according to the following equation: % activity=(F−Fb)/(Ft−Fb), where F=the fluorescent intensity in the presence of the compound. […]

HDAC7 = molecular target: T1, HDAC7 (Homo sapiens, UniProt Q8WUI4); assay: in vitro HDAC inhibition assay (fluorescence), HDAC7; assay type: biochemical; conditions: read-out: Percentage Inhibition
T1 sequence (Q8WUI4 1-952): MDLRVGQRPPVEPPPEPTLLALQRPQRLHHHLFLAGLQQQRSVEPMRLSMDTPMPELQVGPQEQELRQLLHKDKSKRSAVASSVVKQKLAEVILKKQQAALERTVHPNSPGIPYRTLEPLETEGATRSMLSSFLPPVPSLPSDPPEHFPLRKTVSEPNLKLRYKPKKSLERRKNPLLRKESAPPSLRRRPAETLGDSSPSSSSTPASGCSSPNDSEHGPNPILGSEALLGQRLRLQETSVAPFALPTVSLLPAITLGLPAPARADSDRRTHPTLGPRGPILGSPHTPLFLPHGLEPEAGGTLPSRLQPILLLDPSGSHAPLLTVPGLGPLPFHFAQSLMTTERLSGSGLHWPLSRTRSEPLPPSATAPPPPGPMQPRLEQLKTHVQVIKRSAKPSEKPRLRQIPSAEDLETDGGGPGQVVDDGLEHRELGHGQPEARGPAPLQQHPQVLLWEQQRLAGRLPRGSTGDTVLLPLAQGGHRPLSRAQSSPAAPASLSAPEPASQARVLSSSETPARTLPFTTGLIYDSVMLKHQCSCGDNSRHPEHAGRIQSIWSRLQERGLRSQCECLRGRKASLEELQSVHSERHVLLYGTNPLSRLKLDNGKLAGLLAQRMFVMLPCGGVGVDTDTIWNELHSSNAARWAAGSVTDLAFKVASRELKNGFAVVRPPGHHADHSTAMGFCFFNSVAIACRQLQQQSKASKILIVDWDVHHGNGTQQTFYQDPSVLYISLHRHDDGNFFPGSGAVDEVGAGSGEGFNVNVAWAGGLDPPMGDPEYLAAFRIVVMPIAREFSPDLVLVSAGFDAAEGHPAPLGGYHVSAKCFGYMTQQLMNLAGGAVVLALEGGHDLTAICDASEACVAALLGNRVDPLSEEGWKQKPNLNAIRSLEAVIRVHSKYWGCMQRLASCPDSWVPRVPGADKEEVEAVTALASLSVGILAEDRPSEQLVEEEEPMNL
Description: as §1, §2

HDAC9 = HDAC9 (Homo sapiens, UniProt Q9UKV0); assay: in vitro HDAC inhibition assay (fluorescence), HDAC9; assay type: biochemical; conditions: read-out: Percentage Inhibition
HDAC9, sequence (Q9UKV0 whole entry): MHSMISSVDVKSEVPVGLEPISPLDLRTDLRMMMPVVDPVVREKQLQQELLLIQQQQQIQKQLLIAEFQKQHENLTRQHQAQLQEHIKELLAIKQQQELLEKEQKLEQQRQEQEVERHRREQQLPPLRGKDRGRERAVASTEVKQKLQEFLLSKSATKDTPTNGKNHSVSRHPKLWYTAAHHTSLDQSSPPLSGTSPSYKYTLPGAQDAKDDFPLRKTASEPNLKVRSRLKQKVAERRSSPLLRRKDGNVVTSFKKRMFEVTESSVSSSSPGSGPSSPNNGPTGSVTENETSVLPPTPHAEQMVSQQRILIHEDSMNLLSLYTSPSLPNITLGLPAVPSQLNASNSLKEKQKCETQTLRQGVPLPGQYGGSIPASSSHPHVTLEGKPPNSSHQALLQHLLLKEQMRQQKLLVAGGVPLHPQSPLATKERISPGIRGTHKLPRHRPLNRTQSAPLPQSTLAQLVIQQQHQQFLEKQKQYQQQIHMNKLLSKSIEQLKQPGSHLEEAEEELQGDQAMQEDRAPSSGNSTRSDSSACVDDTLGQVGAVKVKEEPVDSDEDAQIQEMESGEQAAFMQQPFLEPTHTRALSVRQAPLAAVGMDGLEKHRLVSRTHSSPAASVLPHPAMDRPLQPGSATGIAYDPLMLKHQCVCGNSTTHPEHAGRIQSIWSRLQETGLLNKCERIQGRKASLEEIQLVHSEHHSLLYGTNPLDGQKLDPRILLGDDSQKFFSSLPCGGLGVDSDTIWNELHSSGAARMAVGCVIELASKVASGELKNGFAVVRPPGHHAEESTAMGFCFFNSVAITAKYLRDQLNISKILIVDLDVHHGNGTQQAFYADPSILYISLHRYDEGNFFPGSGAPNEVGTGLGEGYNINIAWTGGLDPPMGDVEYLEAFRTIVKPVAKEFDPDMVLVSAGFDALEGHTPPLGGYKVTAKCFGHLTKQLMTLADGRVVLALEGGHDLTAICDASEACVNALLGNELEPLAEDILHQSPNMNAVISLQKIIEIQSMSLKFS
Description: as §1, §2

HDAC11 = molecular target: T2, HDAC11 (Homo sapiens, UniProt Q96DB2); assay: in vitro HDAC inhibition assay (fluorescence), HDAC11; assay type: biochemical; conditions: read-out: Percentage Inhibition
T2 sequence (Q96DB2 1-347): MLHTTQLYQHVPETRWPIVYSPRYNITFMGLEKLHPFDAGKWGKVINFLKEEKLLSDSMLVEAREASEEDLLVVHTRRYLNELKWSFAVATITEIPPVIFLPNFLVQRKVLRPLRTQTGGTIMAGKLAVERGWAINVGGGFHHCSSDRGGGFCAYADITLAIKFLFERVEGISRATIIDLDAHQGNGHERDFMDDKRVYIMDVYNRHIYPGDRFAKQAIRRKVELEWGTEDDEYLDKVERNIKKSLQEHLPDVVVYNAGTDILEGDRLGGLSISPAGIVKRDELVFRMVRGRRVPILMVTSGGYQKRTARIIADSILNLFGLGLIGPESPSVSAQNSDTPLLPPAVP
Description: as §1, §2

[2] = 30 mg twice weekly; cited from earlier work
[3] = 1,000 mg/m^2 IV once daily on days 1 to 5 of a 21-day cycle; cited from earlier work

HDAC4, sequence (P56524 whole entry): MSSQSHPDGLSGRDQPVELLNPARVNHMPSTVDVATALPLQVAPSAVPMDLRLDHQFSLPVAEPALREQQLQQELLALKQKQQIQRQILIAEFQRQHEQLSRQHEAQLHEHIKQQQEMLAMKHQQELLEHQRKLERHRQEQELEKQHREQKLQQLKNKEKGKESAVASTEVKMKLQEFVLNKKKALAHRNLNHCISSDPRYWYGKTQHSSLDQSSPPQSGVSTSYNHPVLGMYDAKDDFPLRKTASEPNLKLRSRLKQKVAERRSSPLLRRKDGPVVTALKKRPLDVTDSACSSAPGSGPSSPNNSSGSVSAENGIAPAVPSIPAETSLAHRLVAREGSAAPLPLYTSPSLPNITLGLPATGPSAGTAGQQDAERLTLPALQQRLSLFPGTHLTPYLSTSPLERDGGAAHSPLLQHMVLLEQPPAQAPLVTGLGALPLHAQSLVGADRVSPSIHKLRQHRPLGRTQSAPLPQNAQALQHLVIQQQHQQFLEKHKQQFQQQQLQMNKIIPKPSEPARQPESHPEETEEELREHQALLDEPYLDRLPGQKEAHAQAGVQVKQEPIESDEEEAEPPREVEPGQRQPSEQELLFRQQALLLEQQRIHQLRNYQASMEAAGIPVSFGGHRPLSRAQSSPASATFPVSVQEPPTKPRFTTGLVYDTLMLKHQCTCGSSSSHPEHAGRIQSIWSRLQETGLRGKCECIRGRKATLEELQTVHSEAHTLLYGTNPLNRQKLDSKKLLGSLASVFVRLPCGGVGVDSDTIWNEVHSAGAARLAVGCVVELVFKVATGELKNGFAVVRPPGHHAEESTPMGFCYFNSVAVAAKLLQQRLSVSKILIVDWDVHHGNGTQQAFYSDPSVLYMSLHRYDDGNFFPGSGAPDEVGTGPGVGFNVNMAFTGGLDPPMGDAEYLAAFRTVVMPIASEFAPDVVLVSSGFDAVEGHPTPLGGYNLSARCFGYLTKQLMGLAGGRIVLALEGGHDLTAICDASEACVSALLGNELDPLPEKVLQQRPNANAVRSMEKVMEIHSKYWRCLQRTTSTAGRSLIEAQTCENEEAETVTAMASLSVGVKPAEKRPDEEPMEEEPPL

Nc1ccccc1NC(=O)c1ccc(CNC(=O)OCc2cccnc2)cc1 [MS-275, entinostat]
elimination half-life [1]: approximately 36 hours

C/C=C1\NC(=O)[C@H]2CSSCC/C=C/[C@H](CC(=O)N[C@H](C(C)C)C(=O)N2)OC(=O)[C@H](C(C)C)NC1=O [FK228, romidepsin, reference compound]
inhibition at 100 µM (HDAC4): < 17%
inhibition at 100 µM (HDAC7): < 17%
inhibition at 100 µM (HDAC9): < 17%
inhibition at 100 µM (HDAC11): < 17%

Nc1cc(F)ccc1NC(=O)c1ccc(CNC(=O)/C=C/c2cccnc2)cc1 [Chidamide, chidamide]
SAE rate [2]: 5%

O=C(/C=C/c1cccc(S(=O)(=O)Nc2ccccc2)c1)NO [belinostat]
Grade 3 or 4 adverse effect rate [3]: 47%

Reference: patent US20240058347A1, “DOSAGES FOR HDAC TREATMENT WITH REDUCED SIDE EFFECTS” (VIRACTA THERAPEUTICS, INC., priority 2019, published 2024)
